Structures are written as SMILES. Where two headings read alike, the source gives them in different places.

Assay type in all cases: cell-based
The target of experiment [1] is protein kinases (human kinome) (Homo sapiens, UniProt O14874). The following applies: BCKDK (O14874).
Experiment [2] deals with T1, protein kinases (human kinome) (Homo sapiens, UniProt Q8TD19).
T1 sequence (Q8TD19 1-979): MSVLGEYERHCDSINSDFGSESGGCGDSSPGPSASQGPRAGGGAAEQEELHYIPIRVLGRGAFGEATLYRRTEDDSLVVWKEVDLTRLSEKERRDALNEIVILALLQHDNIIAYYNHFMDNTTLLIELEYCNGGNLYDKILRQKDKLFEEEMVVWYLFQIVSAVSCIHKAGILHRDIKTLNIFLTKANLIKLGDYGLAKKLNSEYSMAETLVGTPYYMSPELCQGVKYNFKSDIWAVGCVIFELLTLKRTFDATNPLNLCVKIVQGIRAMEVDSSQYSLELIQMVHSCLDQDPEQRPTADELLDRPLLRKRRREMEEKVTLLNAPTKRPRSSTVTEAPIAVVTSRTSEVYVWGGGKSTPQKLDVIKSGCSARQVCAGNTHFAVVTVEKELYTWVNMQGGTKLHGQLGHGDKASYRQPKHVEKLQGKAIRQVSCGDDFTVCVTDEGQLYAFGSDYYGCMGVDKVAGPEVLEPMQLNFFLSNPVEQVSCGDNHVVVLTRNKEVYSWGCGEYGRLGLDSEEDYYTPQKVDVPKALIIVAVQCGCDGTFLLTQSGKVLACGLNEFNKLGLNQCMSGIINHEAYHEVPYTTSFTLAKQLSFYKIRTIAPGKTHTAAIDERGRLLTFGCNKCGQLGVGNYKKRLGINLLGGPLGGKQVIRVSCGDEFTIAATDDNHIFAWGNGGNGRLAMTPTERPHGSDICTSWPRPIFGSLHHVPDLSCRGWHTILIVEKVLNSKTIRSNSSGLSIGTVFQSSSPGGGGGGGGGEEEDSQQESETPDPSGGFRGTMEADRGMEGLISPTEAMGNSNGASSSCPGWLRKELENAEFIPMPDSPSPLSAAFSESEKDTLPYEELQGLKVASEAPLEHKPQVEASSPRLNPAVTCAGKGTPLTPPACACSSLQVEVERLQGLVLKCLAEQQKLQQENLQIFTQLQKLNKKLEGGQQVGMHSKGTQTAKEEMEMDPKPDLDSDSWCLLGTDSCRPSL

Experiment [3] deals with T2, protein kinases (human kinome) (Homo sapiens, UniProt Q9UBE8).
T2 sequence (Q9UBE8 1-527): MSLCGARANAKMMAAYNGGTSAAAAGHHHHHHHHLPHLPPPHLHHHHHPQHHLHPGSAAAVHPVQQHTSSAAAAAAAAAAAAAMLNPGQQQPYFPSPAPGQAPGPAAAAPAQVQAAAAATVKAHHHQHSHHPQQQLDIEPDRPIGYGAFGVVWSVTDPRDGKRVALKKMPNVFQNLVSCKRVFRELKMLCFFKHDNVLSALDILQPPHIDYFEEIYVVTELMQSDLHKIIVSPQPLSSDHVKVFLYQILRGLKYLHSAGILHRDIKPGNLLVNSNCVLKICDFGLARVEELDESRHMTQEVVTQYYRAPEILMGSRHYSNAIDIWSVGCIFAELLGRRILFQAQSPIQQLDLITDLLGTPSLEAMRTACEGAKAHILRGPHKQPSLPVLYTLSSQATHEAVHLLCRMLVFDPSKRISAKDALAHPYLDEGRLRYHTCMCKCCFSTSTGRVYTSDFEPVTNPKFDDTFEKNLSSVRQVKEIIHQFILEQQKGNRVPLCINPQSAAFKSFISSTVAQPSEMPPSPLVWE

The target of experiment [4] is protein kinases (human kinome) (Homo sapiens, UniProt Q13164). The note with it: MAPK7 (Q13164-1).
The mark [5] stands for this setting: experiment wp084, direction down.
Setting [6] is: NEK9 (Q8TD19), experiment wp045, direction down.
The mark [7] stands for this setting: NEK9 (Q8TD19), experiment wp117, direction down.
[8] abbreviates: NLK (Q9UBE8), experiment wp137, direction down.
The mark [9] stands for this setting: experiment wp137, direction down.
Setting [10] is: experiment wp147, 4 uM, direction down.

Sequence of protein kinases (human kinome) (Homo sapiens, UniProt Q13164) (Q13164 whole entry): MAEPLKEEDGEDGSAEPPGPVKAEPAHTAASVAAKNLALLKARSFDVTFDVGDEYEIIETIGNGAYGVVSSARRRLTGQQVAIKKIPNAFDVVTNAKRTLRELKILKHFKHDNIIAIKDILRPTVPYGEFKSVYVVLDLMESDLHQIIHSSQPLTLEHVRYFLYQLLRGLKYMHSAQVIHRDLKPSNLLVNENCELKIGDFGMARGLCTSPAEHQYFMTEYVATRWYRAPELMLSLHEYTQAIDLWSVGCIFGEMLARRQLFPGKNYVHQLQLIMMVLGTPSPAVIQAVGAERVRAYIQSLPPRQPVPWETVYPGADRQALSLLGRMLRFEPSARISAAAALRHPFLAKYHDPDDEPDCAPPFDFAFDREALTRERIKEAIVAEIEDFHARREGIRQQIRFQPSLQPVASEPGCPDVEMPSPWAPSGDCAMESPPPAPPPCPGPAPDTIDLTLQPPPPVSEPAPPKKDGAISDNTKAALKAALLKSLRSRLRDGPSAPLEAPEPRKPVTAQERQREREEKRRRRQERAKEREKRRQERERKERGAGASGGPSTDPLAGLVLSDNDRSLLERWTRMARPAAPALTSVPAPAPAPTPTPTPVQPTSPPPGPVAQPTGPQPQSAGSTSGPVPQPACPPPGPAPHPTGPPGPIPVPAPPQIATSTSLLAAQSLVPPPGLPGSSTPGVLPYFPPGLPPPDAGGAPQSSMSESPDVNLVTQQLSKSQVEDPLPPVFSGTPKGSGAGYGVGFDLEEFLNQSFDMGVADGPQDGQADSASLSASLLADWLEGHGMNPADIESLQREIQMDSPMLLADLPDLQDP

Consider `CC(=O)c1c(C)c2cnc(Nc3ccc(N4CCN(CCOCCOCCOCCNC(=O)COc5cccc6c5C(=O)N(C5CCC(=O)NC5=O)C6=O)CC4)cn3)nc2n(C2CCCC2)c1=O` (centres unmarked) [BSJ.03.123], for which the logFC in experiment [1] (experiment wp084) and in experiment [1] (setting [5]) was −0.4553 in each case.
On to `CN(C)C(=O)c1cc2cnc(Nc3ccc(N4CCN(CCCCNC(=O)COc5cccc6c5C(=O)N(C5CCC(=O)NC5=O)C6=O)CC4)cn3)nc2n1C1CCCC1` (centres unmarked) [BSJ.04.132], for which the logFC in experiment [1] (experiment wp084) and in experiment [1] (setting [5]) was −0.5188 in each case.
As to `CS(=O)(=O)Nc1cccc(-c2csc3cnc(Nc4ccc(N5CCN(CCCCCOc6cccc7c6C(=O)N(C6CCC(=O)NC6=O)C7=O)CC5)cc4)nc23)c1` (centres unmarked) [DB0614, N-(3-(2-((4-(4-(5-((2-(2,6-Dioxopiperidin-3-yl)-1,3-dioxoisoindolin-4-yl)oxy)pentyl)piperazin-1-yl)phenyl)amino)thieno[3,2-d]pyrimidin-7-yl)phenyl)methanesulfonamide], the logFC in experiment [2] (setting [6]) is given as −2.74; in experiment [2] (setting [7]) it was −3.006; in experiment [2] (NEK9 Q8TD19, experiment wp045) it was −2.74; in experiment [2] (NEK9 Q8TD19, experiment wp117), −3.006.
Consider `Cc1ccc(NC(=O)c2cccc(C(F)(F)F)c2)cc1N1Cc2cnc(Nc3ccc(N4CCN(Cc5cn(CCCCCOc6cccc7c6C(=O)N(C6CCC(=O)NC6=O)C7=O)nn5)CC4)nc3)nc2N(C)C1=O` (centres unmarked) [DB0646, N-(3-(7-((6-(4-((1-(5-((2-(2,6-Dioxopiperidin-3-yl)-1,3-dioxoisoindolin-4-yl)oxy)pentyl)-1H-1,2,3-triazol-4-yl)methyl)piperazin-1-v)pyridin-3-yl)amino)-1-methyl-2-oxo-1,4-dihydropyrimido[4,5-d]pyrimidin-3(2H)-yl)-4-methylphenyl)-3-(trifluoromethyl)benzamide], for which the logFC in experiment [3] (NLK (Q9UBE8), experiment wp117, direction down) is −0.501; in experiment [3] (NLK (Q9UBE8), experiment wp160, 8 hr, direction down), −0.5569; in experiment [3] (NLK Q9UBE8, experiment wp117) it was −0.501; in experiment [3] (NLK Q9UBE8, experiment wp160, 8 hr), −0.5569.
With `Cc1ccc(NC(=O)c2cccc(C(F)(F)F)c2)cc1N1Cc2cnc(Nc3ccc(N4CCN(CCCCC(=O)N[C@H](C(=O)N5C[C@H](O)C[C@H]5C(=O)N[C@@H](C)c5ccc(-c6scnc6C)cc5)C(C)(C)C)CC4)nc3)nc2N(C)C1=O` [DB1113], the logFC in experiment [3] (NLK (Q9UBE8), experiment wp168, direction down) is reported as −0.8556; in experiment [3] (NLK Q9UBE8, experiment wp168), −0.8556; in experiment [4] (experiment wp168) it was −0.766; in experiment [4] (experiment wp168, direction down), −0.766.
As to `CC(C)(C)c1nc(-c2cccc(NS(=O)(=O)c3c(F)cccc3F)c2F)c(-c2ccnc(NCCOCCNC(=O)CCOCCOCCNc3cccc4c3C(=O)N(C3CCC(=O)NC3=O)C4=O)n2)s1` (centres unmarked) [DD.03.106], the logFC in experiment [3] (setting [8]) is reported as −0.441; in experiment [1] (experiment wp137), −0.3275; in experiment [1] (setting [9]), −0.3275; in experiment [1] (experiment wp147, 4 uM), −0.5831; in experiment [1] (setting [10]), −0.5831.
In the case of `CC(C)(C)c1nc(-c2cccc(NS(=O)(=O)c3c(F)cccc3F)c2F)c(-c2ccnc(NCCOCCNC(=O)CCOCCOCCNc3cccc4c3CN(C3CCC(=O)NC3=O)C4=O)n2)s1` (centres unmarked) [DD.03.107], the logFC in experiment [1] (experiment wp147, 4 uM) is given as −1.113; in experiment [1] (setting [10]), −1.113.
In the case of `Cc1ncsc1-c1ccc([C@H](C)NC(=O)[C@@H]2C[C@@H](O)CN2C(=O)[C@@H](NC(=O)CCOCCOCCN2CCN(c3ccc(Nc4ncc(Cl)c(Nc5ccccc5S(=O)(=O)C(C)C)n4)cc3)CC2)C(C)(C)C)cc1` [FMF.06.098.1], the logFC in experiment [4] (experiment wp108) is given as −0.4347; in experiment [4] (experiment wp108, direction down) it was −0.4347; in experiment [4] (experiment wp131), −0.4637; in experiment [4] (experiment wp131, direction down) it was −0.4637.
For the compound `Cc1cnc(Nc2ccc(N3CCN(CCCCCCC(=O)N[C@H](C(=O)N4C[C@H](O)C[C@H]4C(=O)N[C@@H](C)c4ccc(-c5scnc5C)cc4)C(C)(C)C)CC3)cc2)nc1Nc1cccc(S(=O)(=O)NC(C)(C)C)c1` [JWG.123], the logFC in experiment [2] (NEK9 (Q8TD19), experiment wp195, direction down) is given as −1.079; in experiment [2] (NEK9 Q8TD19, experiment wp195), −1.079.
Turning to `CNC(=O)c1ccccc1Nc1cc(Nc2ccc(N3CCN(CCOCCOCCNC(=O)CNc4cccc5c4C(=O)N(C4CCC(=O)NC4=O)C5=O)CC3)cc2OC)ncc1C(F)(F)F` (centres unmarked) [MFH.5.103.1], the logFC is listed as −0.4142 in experiment [4] (experiment wp076) and −0.4142 in experiment [4] (experiment wp076, direction down).
In the case of `CS(=O)(=O)Nc1cccc(-c2csc3cnc(Nc4ccc(N5CCN(CCOCCOCCOc6cccc7c6C(=O)N(C6CCC(=O)NC6=O)C7=O)CC5)cc4)nc23)c1` (centres unmarked) [RSS0628], the logFC is −2.438 in experiment [2] (setting [6]) and −2.438 in experiment [2] (NEK9 Q8TD19, experiment wp045).
Take `Cc1ncsc1-c1ccc([C@H](C)NC(=O)[C@@H]2C[C@@H](O)CN2C(=O)[C@@H](NC(=O)CCCCCN2CCN(c3ccc(Nc4ncc5scc(-c6cccc(NS(C)(=O)=O)c6)c5n4)cc3)CC2)C(C)(C)C)cc1` [RSS0680, (2S,4R)-1-((S)-3,3-Dimethyl-2-(6-(4-(4-((7-(3-(methylsulfonamido)phenyl)thieno[3,2-d]pyrimidin-2-yl)amino)phenyl)piperazin-1-yl)hexanamido)butanoyl)-4-hydroxy-N—((S)-1-(4-(4-methylthiazol-5yl)phenyl)ethyl)pyrrolidine-2-carboxamide]: the logFC in experiment [2] (NEK9 (Q8TD19), experiment wp080, direction down) was −1.277; in experiment [2] (setting [7]), −1.483; in experiment [2] (NEK9 Q8TD19, experiment wp080) it was −1.277; in experiment [2] (NEK9 Q8TD19, experiment wp117), −1.483.
`Cn1c(=O)c(-c2c(Cl)cccc2Cl)cc2cnc(Nc3ccc(OCCNC(=O)CCCCCCNC(=O)COc4cccc5c4C(=O)N(C4CCC(=O)NC4=O)C5=O)cc3)nc21` (centres unmarked) [SB1.G.192.1]: the logFC in experiment [3] (NLK (Q9UBE8), experiment wp071, direction down) is −0.5578; in experiment [3] (NLK (Q9UBE8), experiment wp081, direction down), −0.4869; in experiment [3] (NLK (Q9UBE8), experiment wp131, direction down), −0.5634; in experiment [3] (NLK Q9UBE8, experiment wp071) it was −0.5578; in experiment [3] (NLK Q9UBE8, experiment wp081), −0.4869; in experiment [3] (NLK Q9UBE8, experiment wp131), −0.5634.
Consider `CC(C)S(=O)(=O)c1ccccc1Nc1nc(Nc2ccc(N3CCN(CCOCCOCCNC(=O)CNc4cccc5c4C(=O)N(C4CCC(=O)NC4=O)C5=O)CC3)cc2)ncc1Cl` (centres unmarked) [TL12.186], for which the logFC in experiment [3] (setting [8]) was −0.5154; in experiment [3] (NLK Q9UBE8, experiment wp137) it was −0.5154; in experiment [4] (experiment wp137), −0.3334; in experiment [4] (setting [9]) it was −0.3334.

Values taken from patent US20240269139A1, “COMPOUNDS FOR TARGETED PROTEIN DEGRADATION OF KINASES” (DANA-FARBER CANCER INSTITUTE, INC., priority 2020, published 2024).
